Reference: patent publication US20240174723A1, “STAPLED ANTIMICROBIAL PEPTIDES (STAMPS) AND USES THEREOF” (Lytica Therapeutics, Inc., priority 2021, published 2024)
Converted amounts (≈) assume the structure as drawn. Positions of bridges follow the written chain, without caps; N, C: chain ends. Non-standard residues stand in square brackets, D forms with d. Residues, ends and D or L forms follow the SMILES beside them. S5 = C=CCCC[C@](C)(N)C(=O)O; Dab = NCC[C@H](N)C(=O)O

How the values were obtained:
E. coli = type: cell-based, Escherichia coli
How it was run: (§1)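 Minimum inhibitory concentrations of stapled peptides were determined by a microbroth dilution method derived from CLSI, using a final inoculum of 5×10^5 CFU/ml and 20-24 h incubation at 37 °C.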

A. baumannii = type: cell-based, Acinetobacter baumannii
How it was run: as §1

P. aeruginosa = type: cell-based, Pseudomonas aeruginosa
How it was run: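 Broth microdilution adapted from CLSI in MHB or cation-adjusted MHB; log-phase P. aeruginosa at 5×10^5 CFU/ml final with serially diluted stapled peptides. Incubated 20-24 h at 37 °C; MIC is the lowest concentration without visible growth.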

K. pneumoniae = type: cell-based, Klebsiella pneumoniae
How it was run: as §1

S. aureus = type: cell-based, Staphylococcus aureus
How it was run: as §1

in vitro [1] = type: cell-based; details: human
How it was run: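 RPTEC or HepG2 cells plated overnight, given fresh media, then serial StAMP dilutions (from 5 mg/mL water stock) or vehicle at 37 °C. Cytotoxicity read as LDH release into media, absorbance 490 nm; renal toxicity after 90 min, liver toxicity after 48 h incubation.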

in vitro [2] = type: cell-based; details: human, Inhibitory Concentration at 50% Cytotoxicity (IC50) Human Liver Cells (HepG2)
How it was run: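 HepG2 cells in EMEM with 10% FBS, allowed 4 h to attach, then exposed to serial dilutions of StAMPs (from a 5 mg/mL water stock) or vehicle. After 48 h at 37 °C, viability read by CellTiter-Glo luminescence.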

CC(C)[C@@H]1NC(=O)[C@H](C(C)C)NC(=O)[C@@](C)(NC(=O)[C@H](C)NC(=O)[C@H](CCCCN)NC(=O)CNC(=O)[C@H](Cc2ccccc2)NC(=O)[C@H](CCCCN)NC(=O)[C@H](CCCCN)NC(=O)[C@H](CCCCN)NC(=O)[C@H](CO)NC(=O)[C@H](CCCCN)NC(=O)[C@]2(C)CCCC=CCCC[C@](C)(NC(=O)CN)C(=O)NCC(=O)N[C@@H](CCCCN)C(=O)N[C@@H](Cc3ccccc3)C(=O)N2)CCCC=CCCC[C@@](C)(C(=O)N[C@@H](C)C(=O)N[C@@H](CCCCN)C(=O)N[C@@H](CCCCN)C(N)=O)NC(=O)[C@H](CCC(=O)O)NC1=O [compound 19] (H-G[S5]GKF[S5]KSKKKFGKA[S5]VVE[S5]AKK-NH2; staple 2-6, 16-20)
Minimum Inhibitory Concentration (MIC) E. coli (E. coli): 2 mg/L
Minimum Inhibitory Concentration (MIC) A. baumannii (A. baumannii): 2 mg/L
Minimum Inhibitory Concentration (MIC) P. aeruginosa (P. aeruginosa): 4 mg/L
Minimum Inhibitory Concentration (MIC) K. pneumoniae (K. pneumoniae): 4 mg/L
Minimum Inhibitory Concentration (MIC) S. aureus (S. aureus): >64 mg/L
IC50 at 90 min (in vitro [1]): 92 mg/L (≈ 35.9 µM)
IC50 at 48 hours (in vitro [2]): 95 mg/L (≈ 37 µM)

CC(C)[C@@H]1NC(=O)[C@@](C)(NC(=O)[C@H](C)NC(=O)[C@H](CCCCN)NC(=O)CNC(=O)[C@H](Cc2ccccc2)NC(=O)[C@H](CCCCN)NC(=O)[C@H](CCCCN)NC(=O)[C@H](CCCCN)NC(=O)[C@H](CCCCN)NC(=O)[C@H](Cc2c[nH]cn2)NC(=O)[C@]2(C)CCCC=CCCC[C@](C)(NC(=O)CN)C(=O)NCC(=O)N[C@@H](CO)C(=O)N[C@@H](Cc3ccccc3)C(=O)N2)CCCC=CCCC[C@@](C)(C(=O)N[C@@H](C)C(=O)N[C@@H](CCCCN)C(=O)N[C@@H](CCCCN)C(N)=O)NC(=O)[C@H](CCC(=O)O)NC(=O)CNC1=O [compound 5] (H-G[S5]GSF[S5]HKKKKFGKA[S5]VGE[S5]AKK-NH2; staple 2-6, 16-20)
Minimum Inhibitory Concentration (MIC) E. coli (E. coli): 4 mg/L
Minimum Inhibitory Concentration (MIC) A. baumannii (A. baumannii): 4 mg/L
Minimum Inhibitory Concentration (MIC) P. aeruginosa (P. aeruginosa): 4 mg/L
Minimum Inhibitory Concentration (MIC) K. pneumoniae (K. pneumoniae): >64 mg/L
Minimum Inhibitory Concentration (MIC) S. aureus (S. aureus): >64 mg/L
IC50 at 90 min (in vitro [1]): > 200 mg/L
IC50 at 48 hours (in vitro [2]): > 200 mg/L

CC(C)[C@@H]1NC(=O)[C@@](C)(NC(=O)[C@H](C)NC(=O)[C@H](CCCCN)NC(=O)CNC(=O)[C@H](Cc2ccccc2)NC(=O)[C@H](CCCCN)NC(=O)[C@H](CCCCN)NC(=O)[C@H](CCCCN)NC(=O)[C@H](CCCCN)NC(=O)[C@H](CCCCN)NC(=O)[C@]2(C)CCCC=CCCC[C@](C)(NC(=O)CN)C(=O)NCC(=O)N[C@@H](CCCCN)C(=O)N[C@@H](Cc3ccccc3)C(=O)N2)CCCC=CCCC[C@@](C)(C(=O)N[C@@H](C)C(=O)N[C@@H](CCCCN)C(=O)N[C@@H](CCCCN)C(=O)NCC(=O)NCC(=O)N[C@@H](CCC(=O)O)C(N)=O)NC(=O)[C@H](CCC(=O)O)NC(=O)CNC1=O [compound 26] (H-G[S5]GKF[S5]KKKKKFGKA[S5]VGE[S5]AKKGGE-NH2; staple 2-6, 16-20)
Minimum Inhibitory Concentration (MIC) E. coli (E. coli): 4 mg/L
Minimum Inhibitory Concentration (MIC) A. baumannii (A. baumannii): 4 mg/L
Minimum Inhibitory Concentration (MIC) P. aeruginosa (P. aeruginosa): 4 mg/L
Minimum Inhibitory Concentration (MIC) K. pneumoniae (K. pneumoniae): 32 mg/L
Minimum Inhibitory Concentration (MIC) S. aureus (S. aureus): >64 mg/L
IC50 at 90 min (in vitro [1]): 366 mg/L (≈ 130 µM)
IC50 at 48 hours (in vitro [2]): 354 mg/L (≈ 126 µM)

C[C@H](NC(=O)[C@H](CCCCN)NC(=O)CNC(=O)[C@H](Cc1ccccc1)NC(=O)[C@H](CCCCN)NC(=O)[C@H](CCCCN)NC(=O)[C@H](CCCCN)NC(=O)[C@H](CO)NC(=O)[C@H](Cc1c[nH]cn1)NC(=O)[C@]1(C)CCCC=CCCC[C@](C)(NC(=O)CN)C(=O)NCC(=O)N[C@@H](CCCCN)C(=O)N[C@@H](Cc2ccccc2)C(=O)N1)C(=O)N[C@@]1(C)CCCC=CCCC[C@@](C)(C(=O)N[C@@H](C)C(=O)N[C@@H](CCCCN)C(=O)N[C@@H](CCCCN)C(N)=O)NC(=O)[C@H](CCC(=O)O)NC(=O)CNC(=O)[C@H](Cc2c[nH]c3ccccc23)NC1=O [compound 64] (H-G[S5]GKF[S5]HSKKKFGKA[S5]WGE[S5]AKK-NH2; staple 2-6, 16-20)
Minimum Inhibitory Concentration (MIC) E. coli (E. coli): 4 mg/L
Minimum Inhibitory Concentration (MIC) A. baumannii (A. baumannii): 4 mg/L
Minimum Inhibitory Concentration (MIC) P. aeruginosa (P. aeruginosa): 8 mg/L
Minimum Inhibitory Concentration (MIC) K. pneumoniae (K. pneumoniae): 32 mg/L
Minimum Inhibitory Concentration (MIC) S. aureus (S. aureus): 16 mg/L
IC50 at 90 min (in vitro [1]): > 200 mg/L
IC50 at 48 hours (in vitro [2]): > 200 mg/L

CC(C)[C@@H]1NC(=O)[C@@](C)(NC(=O)[C@H](C)NC(=O)[C@H](CCCCN)NC(=O)CNC(=O)[C@H](Cc2ccccc2)NC(=O)[C@H](CCCCN)NC(=O)[C@H](CCCCN)NC(=O)[C@H](CCCCN)NC(=O)[C@H](CCCCN)NC(=O)[C@H](CCCCN)NC(=O)[C@]2(C)CCCC=CCCC[C@](C)(NC(=O)CN)C(=O)NCC(=O)N[C@@H](CCCCN)C(=O)N[C@@H](Cc3ccccc3)C(=O)N2)CCCC=CCCC[C@@](C)(C(=O)N[C@@H](CCCCN)C(N)=O)NC(=O)[C@H](CCC(=O)O)NC(=O)CNC1=O [compound 27] (H-G[S5]GKF[S5]KKKKKFGKA[S5]VGE[S5]K-NH2; staple 2-6, 16-20)
Minimum Inhibitory Concentration (MIC) E. coli (E. coli): 4 mg/L
Minimum Inhibitory Concentration (MIC) A. baumannii (A. baumannii): 4 mg/L
Minimum Inhibitory Concentration (MIC) P. aeruginosa (P. aeruginosa): 4 mg/L
Minimum Inhibitory Concentration (MIC) K. pneumoniae (K. pneumoniae): 4 mg/L
Minimum Inhibitory Concentration (MIC) S. aureus (S. aureus): >64 mg/L
IC50 at 90 min (in vitro [1]): 100 mg/L (≈ 42.3 µM)
IC50 at 48 hours (in vitro [2]): 117 mg/L (≈ 49.5 µM)

CC(C)[C@@H]1NC(=O)[C@@](C)(NC(=O)[C@H](C)NC(=O)[C@H](CCN)NC(=O)CNC(=O)[C@H](Cc2ccccc2)NC(=O)[C@H](CCN)NC(=O)[C@H](CCN)NC(=O)[C@H](CCN)NC(=O)[C@H](CCN)NC(=O)[C@H](CCN)NC(=O)[C@]2(C)CCCC=CCCC[C@](C)(NC(=O)CN)C(=O)NCC(=O)N[C@@H](CCN)C(=O)N[C@@H](Cc3ccccc3)C(=O)N2)CCCC=CCCC[C@@](C)(C(=O)N[C@@H](C)C(=O)N[C@@H](CCN)C(=O)N[C@@H](CCN)C(N)=O)NC(=O)[C@H](CCC(=O)O)NC(=O)CNC1=O [compound 23] (H-G[S5]G[Dab]F[S5][Dab][Dab][Dab][Dab][Dab]FG[Dab]A[S5]VGE[S5]A[Dab][Dab]-NH2; staple 2-6, 16-20)
Minimum Inhibitory Concentration (MIC) E. coli (E. coli): 8 mg/L
Minimum Inhibitory Concentration (MIC) A. baumannii (A. baumannii): 8 mg/L
Minimum Inhibitory Concentration (MIC) P. aeruginosa (P. aeruginosa): 2 mg/L
Minimum Inhibitory Concentration (MIC) K. pneumoniae (K. pneumoniae): 32 mg/L
Minimum Inhibitory Concentration (MIC) S. aureus (S. aureus): 64 mg/L
IC50 at 90 min (in vitro [1]): 84 mg/L (≈ 36.3 µM)
IC50 at 48 hours (in vitro [2]): 39 mg/L (≈ 16.9 µM)

CC(C)[C@@H]1NC(=O)[C@@](C)(NC(=O)[C@H](Cc2c[nH]c3ccccc23)NC(=O)[C@H](CCCCN)NC(=O)CNC(=O)[C@H](Cc2ccccc2)NC(=O)[C@H](CCCCN)NC(=O)[C@H](CCCCN)NC(=O)[C@H](CCCCN)NC(=O)[C@H](CO)NC(=O)[C@H](Cc2c[nH]cn2)NC(=O)[C@]2(C)CCCC=CCCC[C@](C)(NC(=O)CN)C(=O)NCC(=O)N[C@@H](CCCCN)C(=O)N[C@@H](Cc3ccccc3)C(=O)N2)CCCC=CCCC[C@@](C)(C(=O)N[C@@H](C)C(=O)N[C@@H](CCCCN)C(=O)N[C@@H](CCCCN)C(N)=O)NC(=O)[C@H](CCC(=O)O)NC(=O)CNC1=O [compound 63] (H-G[S5]GKF[S5]HSKKKFGKW[S5]VGE[S5]AKK-NH2; staple 2-6, 16-20)
Minimum Inhibitory Concentration (MIC) E. coli (E. coli): 4 mg/L
Minimum Inhibitory Concentration (MIC) A. baumannii (A. baumannii): 4 mg/L
Minimum Inhibitory Concentration (MIC) P. aeruginosa (P. aeruginosa): 6 mg/L
Minimum Inhibitory Concentration (MIC) K. pneumoniae (K. pneumoniae): 8 mg/L
Minimum Inhibitory Concentration (MIC) S. aureus (S. aureus): 16 mg/L
IC50 at 90 min (in vitro [1]): 32 mg/L (≈ 12.1 µM)
IC50 at 48 hours (in vitro [2]): 60 mg/L (≈ 22.7 µM)

CC(C)[C@@H]1NC(=O)[C@@](C)(NC(=O)[C@H](C)NC(=O)[C@H](CCCCN)NC(=O)CNC(=O)[C@H](Cc2ccccc2)NC(=O)[C@H](CCCCN)NC(=O)[C@H](CCCCN)NC(=O)[C@H](CCCCN)NC(=O)[C@H](CCCCN)NC(=O)[C@H](Cc2c[nH]cn2)NC(=O)[C@]2(C)CCCC=CCCC[C@](C)(NC(=O)CN)C(=O)NCC(=O)N[C@@H](CCCCN)C(=O)N[C@@H](Cc3ccccc3)C(=O)N2)CCCC=CCCC[C@@](C)(C(=O)N[C@@H](C)C(=O)N[C@@H](CCCCN)C(=O)N[C@@H](CCCCN)C(N)=O)NC(=O)[C@H](CCC(=O)O)NC(=O)[C@H](Cc2ccccc2)NC1=O [compound 22] (H-G[S5]GKF[S5]HKKKKFGKA[S5]VFE[S5]AKK-NH2; staple 2-6, 16-20)
Minimum Inhibitory Concentration (MIC) E. coli (E. coli): 2 mg/L
Minimum Inhibitory Concentration (MIC) A. baumannii (A. baumannii): 3 mg/L
Minimum Inhibitory Concentration (MIC) P. aeruginosa (P. aeruginosa): 4 mg/L
Minimum Inhibitory Concentration (MIC) K. pneumoniae (K. pneumoniae): 4 mg/L
Minimum Inhibitory Concentration (MIC) S. aureus (S. aureus): >64 mg/L
IC50 at 90 min (in vitro [1]): 202 mg/L (≈ 75.8 µM)
IC50 at 48 hours (in vitro [2]): > 200 mg/L
